pKi: −log10 of the molar value.

By pKi is commonly meant the Ki on a negative log10 scale, so that one unit is a factor of ten.

The target in this assay is T1, full length human recombinant glucocorticoid receptor (Homo sapiens, UniProt P04150).
T1 construct: partially purified full length human recombinant glucocorticoid receptor; purchased Panvera/Invitrogen PV4302
T1 sequence (P04150 1-777): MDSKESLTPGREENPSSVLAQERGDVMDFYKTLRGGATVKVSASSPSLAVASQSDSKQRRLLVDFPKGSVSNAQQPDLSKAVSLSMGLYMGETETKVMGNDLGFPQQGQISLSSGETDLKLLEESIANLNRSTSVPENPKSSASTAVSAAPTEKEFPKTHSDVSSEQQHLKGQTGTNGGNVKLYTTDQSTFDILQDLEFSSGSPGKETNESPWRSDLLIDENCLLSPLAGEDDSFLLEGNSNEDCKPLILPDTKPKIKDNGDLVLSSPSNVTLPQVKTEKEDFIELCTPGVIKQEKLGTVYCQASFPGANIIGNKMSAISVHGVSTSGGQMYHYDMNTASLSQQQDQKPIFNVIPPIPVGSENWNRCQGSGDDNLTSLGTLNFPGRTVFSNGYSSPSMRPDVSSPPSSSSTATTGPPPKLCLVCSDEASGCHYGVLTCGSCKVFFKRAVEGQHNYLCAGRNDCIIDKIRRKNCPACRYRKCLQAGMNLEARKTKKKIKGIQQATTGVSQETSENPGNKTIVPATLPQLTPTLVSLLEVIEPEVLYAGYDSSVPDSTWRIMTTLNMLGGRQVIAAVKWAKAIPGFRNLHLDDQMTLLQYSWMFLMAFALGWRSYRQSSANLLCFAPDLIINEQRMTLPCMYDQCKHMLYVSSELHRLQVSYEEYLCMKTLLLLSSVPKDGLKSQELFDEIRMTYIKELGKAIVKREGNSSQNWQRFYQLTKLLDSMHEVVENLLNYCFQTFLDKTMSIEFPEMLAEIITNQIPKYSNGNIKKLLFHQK
The experiment in a line: Glucocorticoid Receptor Binding Assay (fluorescence polarization competitor assay, Fluormone GS Far Red tracer). In short, it runs like this:
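Serially diluted compounds competed with the tight-binding far-red fluorescent ligand for recombinant full-length human glucocorticoid receptor plus GR-stabilizing peptide (screening buffer pH 7.4; 3 h, 22 °C, dark). Polarization (610-660 nm) gave IC50 via sigmoidal dose-response fits, and Ki was derived by Cheng-Prusoff from tracer concentration and Kd.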
In general terms: In fluorescence polarisation assays a small probe gives low polarisation when free and higher when bound to something large.

`CCOC(=O)c1cc(Oc2ccc(Cl)c([C@H](C)[C@](O)(c3ccc(=O)n(C)c3)C(F)(F)F)c2)ccc1Cl` (stereo in doubt) [Example 195, 2-Chloro-5-{4-chloro-3-[3,3,3-trifluoro-2-hydroxy-1-methyl-2-(1-methyl-6-oxo-1,6-dihydro-pyridin-3-yl)-propyl]-phenoxy}-benzoic acid ethyl ester]: the pKi was 7.77.
For `C[C@@H](c1cc(Oc2ccc(Cl)c(C(=O)O)c2)ccc1Cl)[C@](O)(c1ccc(=O)n(C)c1)C(F)(F)F` (stereo in doubt) [Example 196, 2-Chloro-5-{4-chloro-3-[3,3,3-trifluoro-2-hydroxy-1-methyl-2-(1-methyl-6-oxo-1,6-dihydro-pyridin-3-yl)-propyl]-phenoxy}-benzoic acid], the pKi is 7.34.
Consider `C[C@H](c1ccc(Oc2ccc(C(=O)O)cc2)c(Cl)c1Cl)[C@@](O)(c1ccc(=O)n(C)c1)C(F)(F)F` (stereo in doubt) [Example 198, 4-{2,3-Dichloro-4-[3,3,3-trifluoro-2-hydroxy-1-methyl-2-(1-methyl-6-oxo-1,6-dihydro-pyridin-3-yl)-propyl]-phenoxy}-benzoic acid], for which the pKi is 8.47.
To `COC(=O)c1ccc(Oc2ccc([C@@H](C)[C@@](O)(c3ccc(=O)n(C)c3)C(F)(F)F)c(Cl)c2Cl)cc1F` (stereo in doubt) [Example 199, 4-{2,3-Dichloro-4-[3,3,3-trifluoro-2-hydroxy-1-methyl-2-(1-methyl-6-oxo-1,6-dihydro-pyridin-3-yl)-propyl]-phenoxy}-2-fluoro-benzoic acid methyl ester] belongs 8.59.
Turning to `C[C@H](c1ccc(Oc2ccc(C(=O)O)c(F)c2)c(Cl)c1Cl)[C@@](O)(c1ccc(=O)n(C)c1)C(F)(F)F` (stereo in doubt) [Example 200, 4-{2,3-Dichloro-4-[3,3,3-trifluoro-2-hydroxy-1-methyl-2-(1-methyl-6-oxo-1,6-dihydro-pyridin-3-yl)-propyl]-phenoxy}-2-fluoro-benzoic acid], the pKi is 8.64.
Take `C[C@@H](c1cc(F)c(Oc2ccc(C(=O)O)c(F)c2)cc1Cl)[C@](O)(c1ccc(=O)n(C)c1)C(F)(F)F` (stereo in doubt) [Example 202, 4-{5-Chloro-2-fluoro-4-[3,3,3-trifluoro-2-hydroxy-1-methyl-2-(1-methyl-6-oxo-1,6-dihydro-pyridin-3-yl)-propyl]-phenoxy}-2-fluoro-benzoic acid]: the pKi is 7.32.
As for `COC(=O)c1ccc(Oc2ccc([C@H](C)[C@](O)(c3cc(C)c(=O)n(C)c3)C(F)(F)F)c(Cl)c2)cc1F` (stereo in doubt) [Example 203, 4-{3-Chloro-4-[2-(1,5-dimethyl-6-oxo-1,6-dihydro-pyridin-3-yl)-3,3,3-trifluoro-2-hydroxy-1-methyl-propyl]-phenoxy}-2-fluoro-benzoic acid methyl ester], the pKi was 9.10.
For `Cc1cc([C@@](O)([C@@H](C)c2ccc(Oc3cc(C(F)(F)F)c(C(=O)O)cn3)cc2Cl)C(F)(F)F)cn(C)c1=O` (stereo in doubt) [Example 206, 6-{3-Chloro-4-[2-(1,5-dimethyl-6-oxo-1,6-dihydro-pyridin-3-yl)-3,3,3-trifluoro-2-hydroxy-1-methyl-propyl]-phenoxy}-4-trifluoromethyl-nicotinic acid], the pKi is 9.15.
With `COC(=O)c1ccc(Oc2ccc([C@H](C)[C@](O)(c3cc(C)c(=O)n(C)c3)C(F)(F)F)c(Cl)c2)cc1Cl` (stereo in doubt) [Example 207, 2-Chloro-4-{3-chloro-4-[2-(1,5-dimethyl-6-oxo-1,6-dihydro-pyridin-3-yl)-3,3,3-trifluoro-2-hydroxy-1-methyl-propyl]-phenoxy}-benzoic acid methyl ester], the pKi is 9.05.
As to `Cc1cc([C@@](O)([C@@H](C)c2ccc(Oc3ccc(C(=O)O)c(C(F)(F)F)n3)cc2Cl)C(F)(F)F)cn(C)c1=O` (stereo in doubt) [Example 209, 6-{3-Chloro-4-[2-(1,5-dimethyl-6-oxo-1,6-dihydro-pyridin-3-yl)-3,3,3-trifluoro-2-hydroxy-1-methyl-propyl]-phenoxy}-2-trifluoromethyl-nicotinic acid], the pKi was 8.85.
Then `Cc1cc([C@@](O)([C@@H](C)c2ccc(Oc3ccc(Cl)c(C(=O)O)c3)cc2Cl)C(F)(F)F)cn(C)c1=O` (stereo in doubt) [Example 211, 2-Chloro-5-{3-chloro-4-[2-(1,5-dimethyl-6-oxo-1,6-dihydro-pyridin-3-yl)-3,3,3-trifluoro-2-hydroxy-1-methyl-propyl]-phenoxy}-benzoic acid], with 9.15; and `CCOC(=O)c1cc(Oc2ccc([C@H](C)[C@](O)(c3cc(C)c(=O)n(C)c3)C(F)(F)F)c(Cl)c2)ccc1F` (stereo in doubt) [Example 212, 5-{3-Chloro-4-[2-(1,5-dimethyl-6-oxo-1,6-dihydro-pyridin-3-yl)-3,3,3-trifluoro-2-hydroxy-1-methyl-propyl]-phenoxy}-2-fluoro-benzoic acid ethyl ester], with 8.72; and `Cc1cc([C@@](O)([C@@H](C)c2ccc(Oc3ccc(C(=O)O)c(C(F)(F)F)c3)cc2Cl)C(F)(F)F)cn(C)c1=O` (stereo in doubt) [Example 214, 4-{3-Chloro-4-[2-(1,5-dimethyl-6-oxo-1,6-dihydro-pyridin-3-yl)-3,3,3-trifluoro-2-hydroxy-1-methyl-propyl]-phenoxy}-2-trifluoromethyl-benzoic acid], with 9.30.
Consider `C[C@H](c1ccc(Oc2ccc(C(=O)O)c(C(F)(F)F)c2)cc1Cl)[C@@](O)(c1ccc(=O)n(C)c1)C(F)(F)F` (stereo in doubt) [Example 220, 4-{3-Chloro-4-[3,3,3-trifluoro-2-hydroxy-1-methyl-2-(1-methyl-6-oxo-1,6-dihydro-pyridin-3-yl)-propyl]-phenoxy}-2-trifluoromethyl-benzoic acid], for which the pKi was 8.40.
Take `C[C@@H](c1ccc(Oc2ccc(C(=O)O)c(Cl)c2)cc1Cl)[C@](O)(c1cc(Cl)c(=O)n(C)c1)C(F)(F)F` (stereo in doubt) [Example 222, 2-Chloro-4-{3-chloro-4-[2-(5-chloro-1-methyl-6-oxo-1,6-dihydro-pyridin-3-yl)-3,3,3-trifluoro-2-hydroxy-1-methyl-propyl]-phenoxy}-benzoic acid]: the pKi was 9.22.
For `COC(=O)c1cnc(Oc2ccc([C@H](C)[C@](O)(c3cc(Cl)c(=O)n(C)c3)C(F)(F)F)c(Cl)c2)cc1C(F)(F)F` (stereo in doubt) [Example 223, 6-{3-Chloro-4-[2-(5-chloro-1-methyl-6-oxo-1,6-dihydro-pyridin-3-yl)-3,3,3-trifluoro-2-hydroxy-1-methyl-propyl]-phenoxy}-4-trifluoromethyl-nicotinic acid methyl ester], the pKi is 8.33.
In the case of `C[C@@H](c1ccc(Oc2cc(C(F)(F)F)c(C(=O)O)cn2)cc1Cl)[C@](O)(c1cc(Cl)c(=O)n(C)c1)C(F)(F)F` (stereo in doubt) [Example 224, 6-{3-Chloro-4-[2-(5-chloro-1-methyl-6-oxo-1,6-dihydro-pyridin-3-yl)-3,3,3-trifluoro-2-hydroxy-1-methyl-propyl]-phenoxy}-4-trifluoromethyl-nicotinic acid], the pKi was 8.42.
To `C[C@H](c1ccc(-c2ccc(C(=O)O)c(F)c2)cc1Cl)[C@@](O)(c1cnc2ccccc2c1)C(F)(F)F` (stereo in doubt) [Example 225, 3′-Chloro-3-fluoro-4′-(3,3,3-trifluoro-2-hydroxy-1-methyl-2-quinolin-3-yl-propyl)-biphenyl-4-carboxylic acid] belongs 8.15; to `C[C@H](c1ccc(Oc2ccc(C(=O)O)c(Cl)c2)cc1Cl)[C@@](O)(c1ccc2nccnc2c1)C(F)(F)F` (stereo in doubt) [Example 228, 2-Chloro-4-[3-chloro-4-(3,3,3-trifluoro-2-hydroxy-1-methyl-2-quinoxalin-6-yl-propyl)-phenoxy]-benzoic acid], 7.19; to `C[C@H](c1ccc(-c2ccc(C(=O)O)c(F)c2)cc1Cl)[C@@](O)(c1ccc(C#N)n1C)C(F)(F)F` (stereo in doubt) [Example 230, 3′-Chloro-4′-[2-(5-cyano-1-methyl-1H-pyrrol-2-yl)-3,3,3-trifluoro-2-hydroxy-1-methyl-propyl]-3-fluoro-biphenyl-4-carboxylic acid], 7.60.
Then `C[C@H](c1ccc(Oc2ccc(C(=O)O)c(Cl)c2)cc1Cl)[C@@](O)(c1ccc(C#N)n1C)C(F)(F)F` (stereo in doubt) [Example 232, 2-Chloro-4-{3-chloro-4-[2-(5-cyano-1-methyl-1H-pyrrol-2-yl)-3,3,3-trifluoro-2-hydroxy-1-methyl-propyl]-phenoxy}-benzoic acid], with 7.84.

For the origin of these results see patent publication US8138189B2, “Substituted benzene compounds as modulators of the glucocorticoid receptor” (Hoffman-La Roche Inc., priority 2009, dated 2012).
